# Key:
# [1] = biological target: T1, Trypsin (Bos taurus, UniProt P00760); experiment: Inhibitory effect on ester-hydrolyzing activity of trypsin (TAMe substrate); format: biochemical; settings: read-out: percent inhibition at 10^-3 M (trypsin)
# T1 sequence (P00760 24-246): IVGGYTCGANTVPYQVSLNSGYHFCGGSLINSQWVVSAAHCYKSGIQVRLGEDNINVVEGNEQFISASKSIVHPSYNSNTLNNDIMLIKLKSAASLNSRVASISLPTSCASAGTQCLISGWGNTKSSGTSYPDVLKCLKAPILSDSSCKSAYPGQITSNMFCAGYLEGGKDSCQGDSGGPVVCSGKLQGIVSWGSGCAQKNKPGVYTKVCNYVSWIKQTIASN
# Method: (A) Determination of Enzyme-inhibitory Activity: The enzyme-inhibitory activities in vitro of the compounds of this invention were measured by the following procedure according to the method of M. Muramatsu et al. [[…]. Makino, Y. Hayashi and S. Fujii: J. […] Then, 10 μmoles of the substrate, TAMe (tosylarginine methyl ester), was added, and incubation was performed at 37° C. for 30 minutes. After the incubation, 1.5 ml of 2 M alkaline hydroxylamine was added and thoroughly mixed, and allowed to stand at room temperature for 15 minutes.
# [2] = biological target: Human Plasmin (Homo sapiens, UniProt P00747); experiment: Inhibitory effect on ester-hydrolyzing activity of human plasmin (TAMe substrate); format: biochemical; settings: read-out: percent inhibition at 10^-3 M (plasmin)
# Method: (A) Determination of Enzyme-inhibitory Activity: The enzyme-inhibitory activities in vitro of the compounds of this invention were measured by the following procedure according to the method of M. Muramatsu et al. [[…]. Makino, Y. Hayashi and S. Fujii: J. […] (2) Inhibitory Effect on Ester-hydrolyzing Activity of Human Plasmin It was measured by using 0.1 ml of plasmin (generated by activation of plasminogen with streptokinase) and TAMe as substrate following the method described in (1).
# [3] = biological target: T2, Human Cl Esterase (Homo sapiens, UniProt P09871); experiment: Inhibitory effect on ester-hydrolyzing activity of human Cl esterase (ATEe substrate); format: biochemical; settings: in vitro; acetyltyrosine ethyl ester hydrolysis; read-out: ID50 (Cl esterase)
# T2 sequence (P09871 438-688 limits assumed): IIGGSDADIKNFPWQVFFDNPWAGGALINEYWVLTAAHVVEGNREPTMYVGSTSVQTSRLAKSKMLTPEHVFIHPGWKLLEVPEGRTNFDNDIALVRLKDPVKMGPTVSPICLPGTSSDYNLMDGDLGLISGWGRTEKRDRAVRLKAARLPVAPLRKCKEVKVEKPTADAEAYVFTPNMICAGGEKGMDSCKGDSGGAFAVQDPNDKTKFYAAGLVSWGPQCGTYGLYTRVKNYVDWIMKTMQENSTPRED
# T2 sequence (P09871 16-437 partner limits assumed): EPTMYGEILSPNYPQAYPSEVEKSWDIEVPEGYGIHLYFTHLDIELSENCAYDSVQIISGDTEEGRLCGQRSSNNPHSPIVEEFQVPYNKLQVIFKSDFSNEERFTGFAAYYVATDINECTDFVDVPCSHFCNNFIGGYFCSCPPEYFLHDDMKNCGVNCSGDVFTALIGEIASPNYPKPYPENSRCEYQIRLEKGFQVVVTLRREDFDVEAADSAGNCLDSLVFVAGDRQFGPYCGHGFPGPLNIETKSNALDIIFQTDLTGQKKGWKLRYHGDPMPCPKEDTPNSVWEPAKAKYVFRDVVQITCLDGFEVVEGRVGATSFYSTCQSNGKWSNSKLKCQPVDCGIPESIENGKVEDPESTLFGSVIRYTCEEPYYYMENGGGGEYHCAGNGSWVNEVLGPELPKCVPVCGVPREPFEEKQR
# Method: It was measured by using 0.1 ml of Cl esterase, 0.1 ml of 0.02 M sodium phosphate buffer solution (pH 7.4) and 10 μmoles of ATEe (acetyltyrosine ethyl ester) as substrate following the method described in (1).
# [4] = biological target: Human Plasma Kallikrein (Homo sapiens, UniProt P03952); experiment: Inhibitory effect on ester-hydrolyzing activity of human plasma kallikrein (TAMe substrate); format: biochemical; settings: read-out: percent inhibition at 10^-3 M (kallikrein)
# Method: (A) Determination of Enzyme-inhibitory Activity: The enzyme-inhibitory activities in vitro of the compounds of this invention were measured by the following procedure according to the method of M. Muramatsu et al. [[…]. Makino, Y. Hayashi and S. Fujii: J.
# [5] = biological target: Bovine Thrombin (Bos taurus, UniProt P00735); experiment: Inhibitory effect on ester-hydrolyzing activity of bovine thrombin (TAMe substrate); format: biochemical; settings: read-out: percent inhibition at 10^-3 M (thrombin)
# Method: (4) Inhibitory Effect on Ester-Hydrolyzing Activity of Bovine Thrombin
# It was measured by using 0.4 ml of bovine thrombin […], 0.02 M sodium phosphate buffer solution (pH 7.4) and TAMe as substrate following the method described in (1).
# [6] = tested on: complement-dependent hemolysis of sensitized erythrocytes; experiment: Antihemolytic activity (prevention of complement-dependent hemolysis); format: cell-based; settings: Erythrocyte, 10 min; for inhibition at 100 µM: 10^-4 M
# Method: (C) Determination of Antihemolytic Activity: Preventions of the complement-dependent hemolysis by the compounds of this invention were measured according to the method of B. R. Baker et al. [J. Med. Chem., 12, 408-414 (1969)] by the following procedure: […] The mixture was incubated at 37° C. for 10 minutes. The reaction was stopped by adding 2.7 ml of an ice-cold citrate-saline solution, and the resulting mixture was centrifuged at 3000 rpm for 3 minutes. Absorbance of the supernatant was measured at 541 nm. As the standard, GVB^2+ (gelatin veronal buffer) was substituted for the sample solution and, as the control, GVB^2+ was substituted for the complement.
# [7] = tested on: Rat Masugi Nephritis; experiment: Effect on rat Masugi nephritis (urinary protein); format: in vivo, Sprague-Dawley rats
# Method: (D) Effect on Masugi Nephritis: The effect of Compound No. 73 on Masugi nephritis was investigated according to the method of Shibata et al. [S. Shibata: Men-ekigaku, Arerugi-gaku Jikkenho (Immunology, Experimental Methods in Allergology), p. 664, (1971), Bunkodo, Tokyo]. Male sprague-Dawley rats weighing about 200 g were divided into normal group, diseased group and treated group, each consisting of 7 rats. For the purpose of inducing nephritis, 0.5 ml of anti- "rat nephritis" rabbit serum, which had been prepared according to the method of Shibata et al., was administered intravenously to rats of both diseased and treated groups. To the normal group was intravenously administered the same quantity of physiological saline. The test drug was administered intraperitoneally to rats of the treated group three times, namely two days prior to, one day prior to and on the day of administration of the antiserum. From the rats of each group, a 24 hours urine specimen was collected on the day preceding, and the 1st, 2nd, 5th, 8th and 13th days following the administration of the antiserum. Protein contents of the urine specimen were determined by the sulfosalicylic acid method.
# [8] = Acute toxicity by intraperitoneal administration in mice; settings: mouse, in vivo, ip, read-out: DL50 (acute toxicity)
# [9] = tested on: proteolytic enzymes; settings: prior art; cited from earlier work
# Sequence of Human Plasmin (P00747 581-810 limits assumed): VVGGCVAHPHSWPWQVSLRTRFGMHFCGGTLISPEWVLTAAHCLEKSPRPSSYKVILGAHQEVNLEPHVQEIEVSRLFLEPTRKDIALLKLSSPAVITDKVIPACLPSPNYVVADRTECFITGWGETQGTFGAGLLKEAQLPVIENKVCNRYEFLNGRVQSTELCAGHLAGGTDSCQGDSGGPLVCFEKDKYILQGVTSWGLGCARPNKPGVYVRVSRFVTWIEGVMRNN
# Sequence of Human Plasmin (P00747 97-580 partner limits assumed): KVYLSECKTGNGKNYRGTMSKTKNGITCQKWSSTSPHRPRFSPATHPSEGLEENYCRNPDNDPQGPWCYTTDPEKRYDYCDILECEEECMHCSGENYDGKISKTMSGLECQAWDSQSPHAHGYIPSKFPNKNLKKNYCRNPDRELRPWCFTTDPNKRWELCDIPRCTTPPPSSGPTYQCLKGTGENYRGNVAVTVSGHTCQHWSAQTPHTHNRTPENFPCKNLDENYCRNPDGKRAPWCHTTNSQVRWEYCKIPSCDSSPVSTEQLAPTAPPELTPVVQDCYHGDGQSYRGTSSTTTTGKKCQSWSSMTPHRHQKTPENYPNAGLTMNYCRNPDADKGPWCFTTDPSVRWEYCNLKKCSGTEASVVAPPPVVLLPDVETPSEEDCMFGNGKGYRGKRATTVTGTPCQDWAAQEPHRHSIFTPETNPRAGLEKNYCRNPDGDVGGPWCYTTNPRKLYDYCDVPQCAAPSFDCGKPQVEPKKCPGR
# Sequence of Human Plasma Kallikrein (P03952 391-638 limits assumed): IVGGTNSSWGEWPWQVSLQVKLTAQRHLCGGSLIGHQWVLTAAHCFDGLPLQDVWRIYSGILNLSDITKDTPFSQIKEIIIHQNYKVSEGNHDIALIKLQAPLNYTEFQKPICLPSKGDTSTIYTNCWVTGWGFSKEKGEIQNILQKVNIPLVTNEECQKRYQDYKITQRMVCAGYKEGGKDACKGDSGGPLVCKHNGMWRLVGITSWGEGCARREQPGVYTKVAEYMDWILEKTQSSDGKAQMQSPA
# Sequence of Human Plasma Kallikrein (P03952 20-390 partner limits assumed): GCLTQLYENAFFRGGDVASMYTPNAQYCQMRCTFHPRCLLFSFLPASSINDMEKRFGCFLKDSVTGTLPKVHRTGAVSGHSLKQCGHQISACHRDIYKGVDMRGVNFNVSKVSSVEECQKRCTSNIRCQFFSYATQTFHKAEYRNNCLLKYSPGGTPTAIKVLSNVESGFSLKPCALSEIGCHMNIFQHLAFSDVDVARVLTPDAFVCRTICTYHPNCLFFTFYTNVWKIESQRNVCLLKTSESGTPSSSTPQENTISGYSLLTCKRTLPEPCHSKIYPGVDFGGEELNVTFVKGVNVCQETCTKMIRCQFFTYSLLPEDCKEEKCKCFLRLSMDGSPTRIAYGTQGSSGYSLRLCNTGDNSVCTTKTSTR
SMILES,inhibition at 1000 µM [1],inhibition at 1000 µM [2],IC50 [3],inhibition at 1000 µM [4],inhibition at 1000 µM [5],inhibition at 100 µM [6],inhibitory activity to proteolytic enzymes [9],specificity of enzyme inhibition [9],also measured
"CCC(Cc1ccc(NC(=N)N)cc1)C(=O)Oc1ccccc1 (stereo not drawn) [Compound No. 73, phenyl α-ethylβ-(p-guanidinophenyl)-propionate]",43.9%,< 10%,310 µM,31.5%,< 10%,30%,,,"inhibition at 1000 µM ([6]; 10^-3 M): 69.1%; Protein in urine ([7]; 12.5 mg/kg i.p. x3, day 1 after antiserum): 34.0 mg/day; Protein in urine ([7]; 12.5 mg/kg i.p. x3, day 2 after antiserum): 42.5 mg/day; Protein in urine ([7]; 12.5 mg/kg i.p. x3, day 5 after antiserum): 45.6 mg/day; Protein in urine ([7]; 12.5 mg/kg i.p. x3, day 8 after antiserum): 76.3 mg/day; Protein in urine ([7]; 12.5 mg/kg i.p. x3, day 13 after antiserum): 115.5 mg/day; Protein in urine ([7]; 12.5 mg/kg i.p. x3, day -1): 6.0 mg/day; Protein in urine ([7]; 25.0 mg/kg i.p. x3, day 1 after antiserum): 41.1 mg/day; Protein in urine ([7]; 25.0 mg/kg i.p. x3, day 2 after antiserum): 33.9 mg/day; Protein in urine ([7]; 25.0 mg/kg i.p. x3, day 5 after antiserum): 39.4 mg/day; Protein in urine ([7]; 25.0 mg/kg i.p. x3, day 8 after antiserum): 63.3 mg/day; Protein in urine ([7]; 25.0 mg/kg i.p. x3, day 13 after antiserum): 71.5 mg/day; Protein in urine ([7]; 25.0 mg/kg i.p. x3, day -1): 4.2 mg/day; LD50 [8]: 129 mg/kg"
"CCOC(=O)c1ccc(OC(=O)CCCCCNC(=N)N)cc1.CS(=O)(=O)O [FOY, ethyl p-(6-guanidinohexanoyloxy)benzoate methanesulfonate]",,,,,,,inhibitory activity to proteolytic enzymes,low in specificity,
"CC(Cc1ccc(NC(=N)N)cc1)C(=O)Oc1cccc2ccccc12 (stereo not drawn) [compound 54, 1-naphthyl α-methyl-β-(p-guanidinophenyl)-propionate]",,,,,,49.3%,,,
"CCOC(=O)c1ccc(OC(=O)C(CC)Cc2ccc(NC(=N)N)cc2)cc1 (stereo not drawn) [compound 76, p-ethoxycarbonylphenylα-ethyl-β-(p-guanidinophenyl)-propionate]",,,,,,33%,,,
"CCCC(Cc1cccc(NC(=N)N)c1)C(=O)Oc1ccccc1 (stereo not drawn) [compound 68, phenyl α-n-propyl-β-(m-guanidinophenyl)-propionate]",< 10%,22%,430 µM,17.6%,< 10%,30%,,,
N=C(N)c1ccc(CC(=O)C(=O)O)cc1 [4-amidinophenylpyruvic acid],,,,,,,inhibitory activity to proteolytic enzymes,low in specificity,
